Assay results reported in patent US8188291B2, “Heteroaryl-substituted carboxamides and their use as pharmaceuticals” (Sanofi-Aventis, priority 2006, dated 2012).
pEC50: −log10 of the molar value. Structures can show the parent of a compound that is named as a salt.

Test system: eNOS promoter
Test: Activation of eNOS transcription (eNOS promoter-luciferase reporter gene assay)
Format: cell-based
Conditions: human endothelial cell line stably transfected with eNOS promoter-luciferase construct; 18 h incubation; determined graphically; read-out: EC50 values of transcription induction ratios (TIR)
Experimental: Determination of the Biological Activity A) Activation of eNOS Transcription
Activation of eNOS transcription was measured as described in detail by Li et al., “Activation of protein kinase C alpha and/or epsilon enhances transcription of the human endothelial nitric oxide synthase gene”, Mol. Pharmacol. 53 (1998) 630. Briefly, a 3.5 kB long fragment 5′ of the starting codon of the eNOS gene was cloned, sequenced and cloned in firefly luciferase expression plasmids to monitor activation of the eNOS promoter by reporter gene activity. A human endothelial cell line stable transfected and expressing this promoter-reporter construct was used for compound testing. Cells were incubated for 18 h with the compounds.
All compounds were dissolved in sterile dimethyl sulfoxide (DMSO). A final concentration of 0.5% DMSO in complete medium was allowed. Induction of reporter gene expression in these cells was measured using a standard luciferase assay system (Promega, Cat. No. E150) according to the manufacturer's instructions. Luciferase induction in cells incubated with compounds were compared to those incubated with solvent alone. The ratio of both activities (transcription induction ratio, TIR) was plotted as a function of compound concentration. Typically, TIR values started at low concentrations at a ratio of 1, indicating no compound effect, and extended up to a maximum TIR value TIR(max) which indicates the increase of the eNOS transcription. EC50 values of transcription induction ratios as a function of compound concentration were determined graphically.

Row | SMILES | pEC50
1 | O=C(CCc1ccc(-c2ccc(OC(F)(F)F)cc2)s1)NCC(F)(F)F [Example 8, N-(2,2,2-Trifluoro-ethyl)-3-[5-(4-trifluoromethoxy-phenyl) -thiophen-2-yl]-propionamide] | 5.30 to 6.30
2 | O=C(CCc1ccc(-c2ccc(OC(F)(F)F)cc2)s1)Nc1ccccc1 [Example 10, N-Phenyl-3-[5-(4-trifluoromethoxy-phenyl)-thiophen-2-yl]-propionamide] | 5.30 to 6.30
3 | CC(=O)N1CCN(C(=O)CCc2ccc(-c3ccccc3F)s2)CC1 [Example 20, 1-(4-Acetyl-piperazin-1-yl)-3-[5-(2-fluoro-phenyl) -thiophen-2-yl]-propan-1-one] | 5.30 to 6.30
4 | O=C(CNc1nc(-c2ccc(F)cc2)cs1)N1CCCCC1 [Example 67, 2-[4-(4-Fluoro-phenyl)-thiazol-2-ylamino]-1-(piperidin-1-yl)-ethanone trifluoroacetic acid salt] | 5.30 to 6.30
5 | Nc1nc(CCC(=O)N2CCCCC2)ccc1-c1ccccc1 [Example 79, 3-(6-Amino-5-phenyl-pyridin-2-yl)-1-(piperidin-1-yl) -propanone] | > 6.30
6 | O=C(CNc1ccc(-c2ccccc2F)nc1)N1CCCCC1 [Example 89, 2-[6-(2-Fluoro-phenyl)-pyridin-3-ylamino]-1-(piperidin-1-yl)-ethanone trifluoroacetic acid salt] | 5.30 to 6.30
7 | O=C(CSc1nc(-c2ccc(F)cc2)cs1)N1CCCC1 [Example 98, 2-[4-(4-Fluoro-phenyl)-thiazol-2-ylsulfanyl]-1-(pyrrolidin-1-yl)-ethanone] | 5.30 to 6.30
8 | CC(C)(C)NC(=O)CSc1nc(-c2ccc(F)cc2)cs1 [Example 100, N-tert-Butyl-2-[4-(4-Fluoro-phenyl)-thiazol-2-ylsulfanyl]-acetamide] | 5.30 to 6.30

Results, then the compound that gave them:

Row | pEC50 | SMILES
9 | > 6.30 | O=C(CCc1ccc(-c2ccc(OC(F)(F)F)cc2)s1)NCC1CC1 [Example 7, N-Cyclopropylmethyl-3-[5-(4-trifluoromethoxy-phenyl)-thiophen-2-yl]-propionamide]
10 | > 6.30 | O=C(CNc1nc(-c2ccc(F)cc2)cs1)N1CCCC1 [Example 69, 2-[4-(4-Fluoro-phenyl)-thiazol-2-ylamino]-1-(pyrrolidin-1-yl)-ethanone trifluoroacetic acid salt]
11 | > 6.30 | O=C(COc1ccc(-c2ccccc2F)nc1)Nc1ccccn1 [Example 77, 2-[6-(2-Fluoro-phenyl)-pyridin-3-yloxy]-N-(pyridin-2-yl) -acetamide trifluoroacetic acid salt]
12 | > 6.30 | O=C(COc1ccc(-c2ccccc2F)nc1)Nc1nccs1 [Example 78, 2-[6-(2-Fluoro-phenyl)-pyridin-3-yloxy]-N-(thiazol-2-yl) -acetamide trifluoroacetic acid salt]
